Assay results reported in patent US9259452B2, “Deacetylase inhibitor therapy” (Celgene Corporation, priority 2006, dated 2016).
Values joined by “and” are separate entries in the source; they are usually repeats but may differ in a detail not shown here. Equal entries are not always repeated. Marks after values point to notes of the source that are not given here.

Columns and labels:
[1] = Serum cardiac troponin I and CPK levels prior to and on the day after each dose
Protocol: An additional ECG was obtained on day 3 of the first cycle. ECGs were obtained using an HP Pagewriter XLi or a GE Marquette MAC1200 and recorded at 25 mm/sec, with an amplitude of 10 mm/mV and with 60 Hz filtering. They were analyzed using Pagewriter A.04.01 ECG analysis software (Philips Medical Systems). The QT interval measurement in this program is made by averaging the five longest QT intervals with a T or T′ wave amplitude greater than 0.15 mV. […] Grade 1 toxicity was defined as nonspecific T-wave abnormalities, (flattening or inversion without ST segment abnormalities) and Grade 2 as ST segment depression of at least 1 mm in at least 2 leads. If both were observed, then the ECG was assigned a grade 2 toxicity. […] The QTc analysis was performed on ECGs obtained during the first six cycles from patients treated on the day 1, 8 and 15 schedule (37 patients). ECGs from patients with an intraventricular conduction delay, defined as QRS duration greater than 100 ms, were excluded from the QTc analysis since in that setting the QTc interval includes a variable depolarization interval that leads to a prolonged QTc value (22).

[2] = Post-treatment echocardiogram, global LV function; assay type: in vivo, human
Protocol: Post treatment evaluation of cardiac function (LVEF): Echocardiograms to evaluate cardiac function were also performed on the day following the last dose of the cycle; day 6 for patients treated on days 1 and 5, or day 16 for patients treated on days 1, 8 and 15.
Post-treatment global LV function: To determine whether the observed ECG abnormalities were associated with acute LV wall motion abnormalities, echocardiograms were performed on the day following the last dose of the cycle (d 6 for patients treated on days 1 and 5, and day 16 for patients treated on days 1, 8, and 15).

[3] = Rhythm evaluation by Holter and telemetry monitoring; assay type: in vivo, human
Description: Rhythm: A 24-hour Holter monitor was obtained prior to initiating therapy to establish a baseline rhythm. Patients were monitored by telemetry following administration of the first dose until discharge on day 3.

[4] = QTc analysis (heart rate-corrected QT interval) on ECGs, phase II trial; settings: for Least Square mean QT interval: all doses of first 6 cycles
[5] = Left ventricular ejection fraction (LVEF) evaluation by MUGA, echocardiogram or cardiac MRI; assay type: in vivo, human
Protocol: Evaluation of left ventricular ejection fraction: LVEF evaluations were performed at baseline, after the second cycle and every 3 cycles thereafter using MUGA, echocardiogram or cardiac MRI (23, 24). A patient's on-study and last available LVEF are included in this analysis. Cardiac measurements were performed according to the American Society of Echocardiography guidelines (25). LVEFs from echocardiograms were evaluated by an independent reviewer in a blinded manner and were assessed using the biplane Simpson's method.

[6] = obtained in parallel with elevated cTnI samples, individual cases
[7] = among 123 ECGs, day 6 or day 16
[8] = Bazett's formula, 2051 ECGs, 42 patients
[9] = first 6 cycles, all 42 patients
[10] = re-calculated using Friderica's formula
[11] = 16 patients receiving at least 6 cycles
[12] = 16 patients receiving at least 6 cycles, baseline

- Number of cTnI samples found to be elevated ([1]; from 8 patients, 601 pre-treatment and 590 day-after samples): 10
- CPK samples obtained in parallel with the 10 elevated cTnI samples ([1]; range, unchanged from pre-treatment): 16-200
- Troponin Repeat (of elevated pre-treatment sample) ([1]; serum cTnI, individual cases): ≤ 0.2 ng/ml and ≦0.2 ng/ml
- Troponin Repeat (of elevated post-treatment sample) ([1]; serum cTnI, repeated the same day, individual cases): ≤ 0.2 ng/ml and ≦0.2 ng/ml
- Echocardiograms demonstrating a change from baseline (acute LV wall motion) ([2]; day following last dose of the cycle (day 6 or day 16), 145 echocardiograms, 34 patients): None
- Latest EF, Median [5, 11]: 63.5%
- Latest EF, Range [5, 11]: 50-80%
- Starting EF, Median [5, 12]: 65.5%
- Starting EF, Range [5, 12]: 50-85%
- EF by MUGA, On-study Median (range) ([5]; All patients (19), baseline): 61% (46-85)
- EF by Echocardiogram, On-study Median (range) ([5]; All patients (23), baseline): 67% (53-85)
- Median actual change in LVEF, on-study to last scan ([5]; MUGA scans, 13 patients, median 20.3 weeks): 1%
- EF by MUGA, Last evaluation Median (range) ([5]; Patients treated with >6 cycles (7)): 61% (50-68)
- EF by MUGA, On-study Median (range) ([5]; Patients treated with >6 cycles (7), baseline): 64% (50-77)
- EF by Echocardiogram, Last evaluation Median (range) ([5]; Patients treated with >6 cycles (9)): 68% (58-80)
- EF by Echocardiogram, On-study Median (range) ([5]; Patients treated with >6 cycles (9), baseline): 69% (56-85)
- EF by MUGA, Last evaluation Median (range) ([5]; Patients with pre- and post treatment evaluations (13)): 61% (50-91)
- EF by MUGA, On-study Median (range) ([5]; Patients with pre- and post treatment evaluations (13), baseline): 62% (46-85)
- EF by Echocardiogram, Last evaluation Median (range) ([5]; Patients with pre- and post treatment evaluations (22)): 64% (53-87)
- EF by Echocardiogram, On-study Median (range) ([5]; Patients with pre- and post treatment evaluations (22), baseline): 67% (53-85)
- Median actual change in LVEF, on-study to last scan ([5]; echocardiograms, 22 patients, median 18.4 weeks): −1%
Structure (SMILES): C/C=C1\NC(=O)[C@H]2CSSCC/C=C/[C@H](CC(=O)N[C@H](C(C)C)C(=O)N2)OC(=O)[C@H](C(C)C)NC1=O [romidepsin, (1S,4S,10S,16E,21R)-7-[(2Z)-ethylidene]-4,21-diisopropyl-2-oxa-12,13-dithia-5,8,20,23-tetraazabicyclo[8.7.6]tricos-16-ene-3,6,9,19,22-pentanone]
- CPK Post-treatment [1, 6]: 20 and 28 (2×) and 18 and 16 and 85 and 157 and 144 and 162
- CPK Pre-treatment [1, 6]: 29 and 43 and 27 and 47 and 70 and 200 and 179 and 28 and 39 and 160
- Troponin Post-treatment ([1]; serum cTnI, day following treatment, individual cases): 2.1-3.3 ng/ml and ≦0.2 ng/ml and 3.3 ng/ml and 2.1 ng/ml and 2.6 ng/ml and 8.3 ng/ml and 2.3 ng/ml and 15.8 ng/ml and 3.6 ng/ml
- Troponin Pre-treatment ([1]; serum cTnI, individual cases with an elevated sample among 1191 samples): 3.4-11.3 ng/ml and 11.3 ng/ml and ≦0.2 ng/ml and 3.4 ng/ml and 6.4 ng/ml
- ECGs with ST-segment depression obtained on the same day as the echocardiogram [2, 7]: 23
- ECGs with T-wave flattening obtained on the same day as the echocardiogram [2, 7]: 82
- ECGs with no abnormalities obtained on the same day as the echocardiogram [2, 7]: 18
- VT on 24-hour Holter during administration ([3]; 20 administrations to 9 patients, including 2 with VT pre-treatment): No patient had VT
- Patients noted to have SVT on 24-hour Holter during administration ([3]; 20 administrations to 9 patients, episodes similar to pretreatment Holter): Two
- Additional patients observed to have wide complex tachycardia on telemetry ([3]; telemetry 24-36 hours, 36 patients, max one event per 24 hr, 4 to 12 beats): Four
- Additional patients observed to have rare SVT on telemetry ([3]; telemetry 24-36 hours, 36 patients, similar frequency on pre-treatment Holter): Three
- Maximal increase of QTc, median ([4]; 31 patients, first six cycles): 11.3%
- Maximum increase in QTc ([4]; 31 patients, first six cycles): 78.25 ms
- Doses associated with a 30 to 60 ms prolongation of QTc ([4]; 349 doses, 31 patients): 25%
- Doses associated with a greater than 60 ms prolongation of QTc ([4]; 349 doses, 31 patients): 2.6%
- Median change of QTc from baseline ([4]; 670 ECGs obtained immediately post-treatment or on the day following treatment): 13.42 ms
- Share of ECGs with QTc over 450 ms that were obtained immediately post treatment or on the day following treatment ([4]; Bazett's formula): Eighty-nine
- Number of patients with QTc greater than 450 ms ([4]; Bazett's formula, 42 patients): 28
- Number of patients with QTc greater than 480 ms ([4]; Bazett's formula, 42 patients): 10
- Number of patients with QTc greater than 500 ms ([4]; Bazett's formula, 42 patients): 4
- Number of ECGs with QTc greater than 450 ms [4, 8]: 163
- Number of ECGs with QTc greater than 480 ms [4, 8]: 20
- Number of ECGs with QTc greater than 500 ms [4, 8]: 5
- Share of ECGs with QTc greater than 450 ms [4, 8]: 8.0%
- Share of ECGs with QTc greater than 480 ms [4, 8]: 1%
- Share of ECGs with QTc greater than 500 ms [4, 8]: 0.2%
- QTc Interval Difference [D2]-[4 hr], Median ([4]; C1): 0.0 ms
- QTc Interval Difference [D3]-[Baseline], Median ([4]; C1): -2.5 ms
- QTc Interval Difference [D3]-[D2], Median ([4]; C1): -20.0 ms
- QTc Interval Difference [D2]-[Baseline], Median ([4]; C1 (cycle 1)): 10.8 ms
- QTc Interval Difference [4 hr]-[Baseline], Median ([4]; C1 (cycle 1), first dose, day 1, 8, 15 schedule): 16.5 ms
- QTc Interval Difference [4 hr]-[Baseline], Median ([4]; C2): 8.0 ms
- QTc Interval Difference [D2]-[Baseline], Median ([4]; C2): 13.2 ms
- QTc Interval Difference [4 hr]-[Baseline], Median ([4]; C3): 15.5 ms
- QTc Interval Difference [D2]-[Baseline], Median ([4]; C3): 5.3 ms
- QTc Interval Difference [4 hr]-[Baseline], Median ([4]; C4): 15.9 ms
- QTc Interval Difference [D2]-[Baseline], Median ([4]; C4): 15.5 ms
- QTc Interval Difference [4 hr]-[Baseline], Median ([4]; C5): 18.2 ms
- QTc Interval Difference [D2]-[Baseline], Median ([4]; C5): 14.8 ms
- QTc Interval Difference [4 hr]-[Baseline], Median ([4]; C6): 18.8 ms
- QTc Interval Difference [D2]-[Baseline], Median ([4]; C6): 17.8 ms
- Least Square mean QT interval ([4]; Post dose, 31 patients, p < 0.0001 vs pre-dose): 424.1*
- Least Square mean QT interval ([4]; Pre-dose, 31 patients): 409.7
- Maximum increase in QTc over that patient's mean baseline QTc ([4]; baseline QTc of 415.75): 19%
- Least Square mean QT interval ([4]; day 1 (pre-treatment), 31 patients, repeated measures ANOVA): 410.3
- Least Square mean QT interval ([4]; day 2 (day after treatment), 31 patients): 422.7
- Least Square mean QT interval ([4]; day 8 (pre-treatment), 31 patients): 410.8
- Least Square mean QT interval ([4]; day 9 (day after treatment), 31 patients): 426.0
- Least Square mean QT interval ([4]; day 15 (pre-treatment), 31 patients): 408.0
- Least Square mean QT interval ([4]; day 16 (day after treatment), 31 patients): 423.7
- Doses associated with a 30 to 60 ms prolongation of QTc [4, 9]: 24%
- Doses associated with a greater than 60 ms prolongation of QTc [4, 9]: 3.2%
- Time after treatment by which QTc changes had reverted to baseline ([4]; first cycle): ≤ 48 h
- Number of ECGs demonstrating an increased QTc from baseline ([4]; of 670 ECGs obtained immediately post-treatment or on the day following treatment, 31 patients): 514
- Number of ECGs with QTc greater than 450 ms [4, 10]: 27
- Number of ECGs with QTc greater than 480 ms [4, 10]: 3
- Number of patients with QTc greater than 450 ms [4, 10]: 15
- Number of patients with QTc greater than 480 ms [4, 10]: 3
- QTc greater than 500 ms [4, 10]: no QTc was greater than 500 ms
- Share of ECGs with QTc greater than 450 ms [4, 10]: 1.3%
- Share of ECGs with QTc greater than 480 ms [4, 10]: 0.1%
- Pre-treatment versus post-treatment LVEF ([5]; 8 patients with six or more cycles and prior doxorubicin): did not demonstrate a difference in pre-treatment and post-treatment LVEF
- LVEF evaluations versus baseline ([5]; 16 patients who received six or more cycles, median cumulative dose 390 mg/m^2): did not demonstrate a change from baseline
- Latest EF ([5]; individual patients receiving at least 6 cycles of therapy): 50% and 78% and 61% (3×) and 72% and 68% (3×) and 80% and 58% (2×) and 70% and 63% and 64% and 60%
- Starting EF ([5]; individual patients receiving at least 6 cycles of therapy, baseline): 52% and 69% and 56% and 67% and 70% (2×) and 85% (2×) and 68% and 58% and 59% and 64% (2×) and 50% and 77% and 54%
